How the values were obtained:
[1] = target: Flt-1 (Homo sapiens, UniProt P17948); conditions: statement in words, no test described; cited from earlier work
[2] = target: Flt-4 (Homo sapiens, UniProt P35916); conditions: statement in words, no test described; cited from earlier work
[3] = target: c-Kit (Homo sapiens, UniProt P10721); conditions: statement in words, no test described; cited from earlier work
[4] = test system: advanced MDS; test: Clinical example: oral PTK787 in patients with untreated advanced MDS; assay type: in vivo, human

Chain of Flt-4 (P35916 25-1363, species assumed): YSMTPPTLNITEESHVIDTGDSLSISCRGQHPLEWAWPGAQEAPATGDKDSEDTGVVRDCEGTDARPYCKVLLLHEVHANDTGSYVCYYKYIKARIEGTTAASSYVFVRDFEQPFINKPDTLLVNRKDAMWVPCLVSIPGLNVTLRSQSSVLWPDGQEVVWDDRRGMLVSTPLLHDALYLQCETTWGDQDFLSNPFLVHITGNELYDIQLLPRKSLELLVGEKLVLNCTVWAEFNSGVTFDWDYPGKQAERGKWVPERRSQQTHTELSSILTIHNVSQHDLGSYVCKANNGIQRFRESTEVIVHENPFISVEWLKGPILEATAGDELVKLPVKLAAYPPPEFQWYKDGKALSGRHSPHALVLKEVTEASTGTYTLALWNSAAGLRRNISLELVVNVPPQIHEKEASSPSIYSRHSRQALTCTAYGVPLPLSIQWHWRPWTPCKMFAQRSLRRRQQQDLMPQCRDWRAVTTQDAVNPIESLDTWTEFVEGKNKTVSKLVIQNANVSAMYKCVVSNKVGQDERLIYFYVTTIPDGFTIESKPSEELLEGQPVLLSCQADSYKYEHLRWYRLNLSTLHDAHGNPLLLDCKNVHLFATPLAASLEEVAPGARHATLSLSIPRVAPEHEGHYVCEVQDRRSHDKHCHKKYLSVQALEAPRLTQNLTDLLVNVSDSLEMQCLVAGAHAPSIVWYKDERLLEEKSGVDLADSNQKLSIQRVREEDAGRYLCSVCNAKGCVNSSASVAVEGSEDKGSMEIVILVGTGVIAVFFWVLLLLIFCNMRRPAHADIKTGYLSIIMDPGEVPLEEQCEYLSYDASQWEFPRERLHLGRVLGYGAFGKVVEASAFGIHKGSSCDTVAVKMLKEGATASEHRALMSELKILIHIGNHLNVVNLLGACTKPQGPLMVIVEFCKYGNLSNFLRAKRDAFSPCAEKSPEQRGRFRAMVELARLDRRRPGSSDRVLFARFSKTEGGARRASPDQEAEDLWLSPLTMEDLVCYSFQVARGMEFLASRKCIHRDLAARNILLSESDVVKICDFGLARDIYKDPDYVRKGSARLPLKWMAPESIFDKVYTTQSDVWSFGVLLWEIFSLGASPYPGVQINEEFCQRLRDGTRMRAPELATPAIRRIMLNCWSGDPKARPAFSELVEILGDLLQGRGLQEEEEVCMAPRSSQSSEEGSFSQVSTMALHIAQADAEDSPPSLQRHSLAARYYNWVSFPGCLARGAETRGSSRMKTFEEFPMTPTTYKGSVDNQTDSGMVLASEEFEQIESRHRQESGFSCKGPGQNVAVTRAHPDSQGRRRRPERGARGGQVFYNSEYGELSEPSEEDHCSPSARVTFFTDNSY
Chain of c-Kit (P10721 26-976): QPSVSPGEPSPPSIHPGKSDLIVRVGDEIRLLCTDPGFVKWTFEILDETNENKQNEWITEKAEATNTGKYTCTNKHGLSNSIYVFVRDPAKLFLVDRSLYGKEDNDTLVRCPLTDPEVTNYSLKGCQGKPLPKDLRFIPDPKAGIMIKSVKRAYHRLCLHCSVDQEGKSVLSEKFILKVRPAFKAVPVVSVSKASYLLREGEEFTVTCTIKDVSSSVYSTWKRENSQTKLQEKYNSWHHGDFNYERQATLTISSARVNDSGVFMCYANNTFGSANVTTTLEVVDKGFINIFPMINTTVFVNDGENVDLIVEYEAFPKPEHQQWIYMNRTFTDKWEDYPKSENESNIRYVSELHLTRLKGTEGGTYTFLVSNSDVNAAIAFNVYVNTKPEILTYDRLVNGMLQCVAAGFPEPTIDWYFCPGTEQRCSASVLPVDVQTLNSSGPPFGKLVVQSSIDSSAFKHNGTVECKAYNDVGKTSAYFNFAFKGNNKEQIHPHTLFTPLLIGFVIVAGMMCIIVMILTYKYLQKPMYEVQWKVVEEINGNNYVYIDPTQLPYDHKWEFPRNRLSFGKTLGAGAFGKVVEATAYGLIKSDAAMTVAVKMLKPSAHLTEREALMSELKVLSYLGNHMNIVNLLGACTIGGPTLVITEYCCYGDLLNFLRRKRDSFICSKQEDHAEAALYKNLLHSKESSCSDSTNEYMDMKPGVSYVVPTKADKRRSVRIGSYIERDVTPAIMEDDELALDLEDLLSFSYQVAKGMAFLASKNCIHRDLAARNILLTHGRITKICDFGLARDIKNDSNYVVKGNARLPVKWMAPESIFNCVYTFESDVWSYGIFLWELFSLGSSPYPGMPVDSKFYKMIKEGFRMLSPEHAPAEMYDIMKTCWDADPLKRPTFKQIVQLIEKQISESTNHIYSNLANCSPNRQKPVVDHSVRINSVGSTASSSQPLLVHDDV
Chain of Flt-1 (P17948 27-1338, species assumed): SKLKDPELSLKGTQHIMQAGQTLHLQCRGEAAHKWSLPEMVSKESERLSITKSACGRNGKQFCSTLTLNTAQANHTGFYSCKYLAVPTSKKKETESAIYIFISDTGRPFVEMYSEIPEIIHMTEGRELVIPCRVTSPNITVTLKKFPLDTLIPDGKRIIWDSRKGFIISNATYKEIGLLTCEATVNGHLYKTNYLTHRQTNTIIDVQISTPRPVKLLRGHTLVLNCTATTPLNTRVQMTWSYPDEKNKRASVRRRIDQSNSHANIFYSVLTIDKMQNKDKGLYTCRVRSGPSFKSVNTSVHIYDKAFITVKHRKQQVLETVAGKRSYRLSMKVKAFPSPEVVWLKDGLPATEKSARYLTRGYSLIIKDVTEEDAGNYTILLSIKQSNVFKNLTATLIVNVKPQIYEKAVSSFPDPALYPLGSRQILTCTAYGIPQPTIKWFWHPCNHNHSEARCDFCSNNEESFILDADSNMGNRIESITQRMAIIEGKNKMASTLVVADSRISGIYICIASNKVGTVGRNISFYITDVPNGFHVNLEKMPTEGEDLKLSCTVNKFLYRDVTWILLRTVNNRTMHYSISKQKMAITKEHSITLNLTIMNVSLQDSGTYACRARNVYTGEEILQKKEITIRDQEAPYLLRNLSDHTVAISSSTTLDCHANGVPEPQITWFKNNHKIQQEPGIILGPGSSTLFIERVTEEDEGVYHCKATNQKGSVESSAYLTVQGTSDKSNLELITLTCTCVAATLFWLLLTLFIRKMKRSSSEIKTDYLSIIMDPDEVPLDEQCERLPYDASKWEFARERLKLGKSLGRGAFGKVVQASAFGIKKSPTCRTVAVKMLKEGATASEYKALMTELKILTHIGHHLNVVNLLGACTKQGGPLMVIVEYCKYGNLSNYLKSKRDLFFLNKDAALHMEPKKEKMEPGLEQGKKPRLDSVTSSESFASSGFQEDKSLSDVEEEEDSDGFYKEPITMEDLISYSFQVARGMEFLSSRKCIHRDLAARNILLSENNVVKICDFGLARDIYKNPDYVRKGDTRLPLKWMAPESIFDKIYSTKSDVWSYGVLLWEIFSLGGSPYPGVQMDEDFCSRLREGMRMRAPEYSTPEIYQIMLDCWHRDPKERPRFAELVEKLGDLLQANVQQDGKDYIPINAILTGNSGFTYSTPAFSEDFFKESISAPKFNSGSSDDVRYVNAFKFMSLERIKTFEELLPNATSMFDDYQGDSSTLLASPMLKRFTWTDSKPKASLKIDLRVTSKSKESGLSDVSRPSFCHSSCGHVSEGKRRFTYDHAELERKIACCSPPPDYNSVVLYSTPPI

## Clc1ccc(Nc2nnc(Cc3ccncc3)c3ccccc23)cc1 [PTK787]
[1]
  inhibition of Flt-1: can also inhibit
[2]
  inhibition of Flt-4: can also inhibit
[3]
  activity against c-Kit: has activity against other tyrosine kinase receptors
[4]; in at least some patients with MDS
  disease progression in patients with MDS: slows disease progression
[4]; of twelve patients, 500 or 750 mg orally twice daily
  patients with MDS showing stable disease with excellent performance status: Two
[4]; one patient with baseline 18% bone marrow blasts, remained for 8 months, 500 or 750 mg orally twice daily
  bone marrow blasts: under 30%
[4]; second patient with baseline 11.5% blasts, remained for 4 months, 500 or 750 mg orally twice daily
  bone marrow blasts: ≤ 16%

Source: patent US20060128716A1, “Use of 4-pyridylmethyl-phthalazine derivatives for the manufacture of a medicament for the treatment of myelodysplastic syndromes” (priority 2002, published 2006)
